Patent US20250205324A1, “ANTIGENIC PEPTIDES FOR PREVENTION AND TREATMENT OF CANCER” (ENTEROME S.A., priority 2022, published 2025)
“Also recorded” adds a separate entry of the source.

Key:
[1] = biological target: T1, HLA-A*0201 (Homo sapiens, UniProt P04439, D140Y/D185E/D98H/E176V/E277Q/G131W/G231S/I119V/I121R/I166T/I218V/L300P/L318F/N151K/N90K/P208A/P217A/Q86G/Q94H/R138H/R169H/T345S); experiment: Affinity of the peptide to T2 cell line (HLA-A*0201 binding, FACS with anti-HLA-A2 antibody); conditions: T2 cells
T1 construct: human tumoral cell T2 which expresses the HLA-A*0201 molecule; endogenous in cells; host or cells: T2 cells (human, TAP1/2 negative)
Procedure: T2 cells (5·10^4 cells per well) are incubated with decreasing concentrations of peptides from 100 μM to 0.1 μM (4 points: 100 μM, 10 μM, 1 μM, 0.1 μM) in serum-free medium (TexMacs) supplemented with 100 ng/μl of 2 Microglobulin at 37° C. for 16 hours.
The analysis is achieved by FACS (Macsquant analyzer 10 or a Macsquant analyzer 16-Miltenyi).

[2] = tested on: HHD DR1 HLA-A2 transgenic mice; experiment: ELISPOT-IFNγ assay on splenocytes of vaccinated HLA-A2 transgenic mice; format: in vivo, mouse; conditions: for immunogenicity: T cell response in ELISPOT-IFNγ: 30 nmol peptide + UCP2 helper in Montanide ISA 51 VG s.c., prime d0, boost d14, spleen d21, restimulation 10 μM; for cross-reactivity of induced T cells with the corresponding human peptide in ELISPOT-IFNγ: prime d0, boost d14, spleen d21, challenge with human peptide 10 μM
Procedure: Briefly, HLA-A2 HHD-DR1 humanized mice (C57BL/6JB2mtm1UnclAb−/−Tg(HLA-DRA, HLA-DRB1*0101)#GjhTg(HLA-A/H2-D/B2M)1 Bpe) were assigned randomly (based on mouse sex and age) to experimental groups, wherein each group was immunized with a specific vaccination peptide (vacc-pAg) combined to a common helper peptide (h-pAg UCP2; sequence: […]; SEQ ID NO: 39) (as outlined in Table 6 below).
The peptide formulation to be injected (emulsion) was prepared freshly on each day of injection and for each group. A mix for 10 animals was prepared using 2 mL luer lock syringes (4606701 V, B BRAUN) and luer lock female-female Combifix® Adapter (B. Braun, 5206634): 500 μL of peptide mixture in syringe 1 was emulsified with 500 μL of Montanide ISA 51 VG (Seppic) contained in syringe 2. The emulsification process was performed first by pushing the peptide mixture contained in syringe 1 into syringe 2 (containing Montanide) at very low speed. Transfer of the mixture from one syringe to another was then performed at very low speed during 6 cycles (one cycle corresponding to one passage from one syringe to another), and secondly at high speed, as fast as possible, for 1 minute. Each emulsion was prepared in excess to compensate for the dead volumes at injection.
The animals were immunized on day 0 (d0) with a prime injection, and on d14 with a boost injection. Each mouse was injected s.c. on the loose skin over the neck of the animals with 100 μL of an oil-based emulsion that contained: • 30 nmol of vacc-pAg and 30 or 100 μg of UCP2 helper peptide in 50 μL of a dedicated final solvent • Montanide ISA 51 VG (Seppic) added at 1:1 (v:v) ratio (50 μL per mouse).
Seven days after the boost injection (i.e. on d21), the animals were euthanized and the spleen was harvested. Splenocytes were prepared by mechanical disruption of the organ followed by 70 μm-filtering and Red blood cell lysis.
The cell suspensions were further used in an ELISPOT-IFN assay (Table 5). The cells were cultured in 200 μL of complete T cell medium. Experimental conditions (duplicates) were as follow: 2×10^5 total cells per well when cultured in presence of various pAg (10 μM) or medium-only; and 2×10^4 total cells when cultured in presence of the positive control PMA/lonomycin (PMA: Sigma P8139: 0.1 μM final; lonomycin: Sigma 10634: 1 μM final). The cultures were assessed for their capacity to secrete IFN (mouse IFN-ELISpotPLUS kit, Mabtech 3321-4APT-10), following the manufacturer's instructions (˜12-48h incubation time before performing the assay). The peptides used for restimulation are described in Table 7.
Spots were counted on a an iSpot Fluorospot Reader System (AID). Data plotting and statistical analysis were performed with the Prism-9 software (GraphPad Software Inc.).
The data were provided as a number of spots per 1·10^6 total T cells. The individual average values (obtained from the duplicates) were next used to plot the group average values. Statistical analysis for comparison (to the irrelevant peptide condition) were performed using unpaired non-parametric test (Mann Whitney) (**: p<0.01; *: p<0.05).

| Sequence | Concentration of peptide that induces 20% of HLA-A2 expression [1] [µM] | immunogenicity: T cell response in ELISPOT-IFNγ [2] | cross-reactivity of induced T cells with the corresponding human peptide in ELISPOT-IFNγ [2] |
| --- | --- | --- | --- |
| ALIFGQLLL [TOP2A-B2] | 1.79 | induced significant T cell responses; also recorded: strongly immunogenic; also recorded: induced strong immune responses | able to drive an effective immune response against the corresponding human peptide; also recorded: Cross-reactivity |
| ALYSEILTV [ANKRD30A-B1] | 0.05 | induced significant T cell responses; also recorded: strongly immunogenic; also recorded: induced strong immune responses | able to drive an effective immune response against the corresponding human peptide; also recorded: Cross-reactivity |
| KIIGIILAV [CDH17-B1] | – | induced significant T cell responses; also recorded: strongly immunogenic; also recorded: induced strong immune responses | able to drive an effective immune response against the corresponding human peptide; also recorded: Cross-reactivity |
| SLPDRILDA (listed as Homo sapiens) [CDC20-H1, reference compound] | 4.57 | – | Cross-reactivity |
